Experiment [1] has as its target Cat L (UniProt P07711). In words: Cathepsin enzyme inhibition assay (fluorogenic peptide substrate Z-Val-Val-Arg-AMC), Cathepsin L. The format is biochemical, human and mouse. Conditions: enzyme 1 nM, substrate 20 μM, pH 6.5; read-out: CatL IC50. The method in brief:
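Cathepsin L at 1 nM was mixed with compound, then started with 20 μM Z-Val-Val-Arg-AMC in pH 6.5 potassium phosphate with EDTA, Triton X-100 and 5 mM DTT. AMC fluorescence (ex 360/em 465 nm) was followed over 20 min. IC50 is given in μM.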

For experiment [2], the target named is Cathepsin S (UniProt P25774). The experiment is described as follows: Cathepsin enzyme inhibition assay (fluorogenic peptide substrate Z-Val-Val-Arg-AMC), Cathepsin S. Type of experiment: biochemical, human and mouse. Conditions: enzyme 1 nM, substrate 20 μM, pH 6.5; read-out: CatS IC50. The method in brief: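 Human or mouse cathepsin S (1 nM) was run in 100 mM potassium phosphate pH 6.5 with 5 mM EDTA, 0.001% Triton X-100 and 5 mM DTT. The rise in AMC fluorescence from cleavage was measured, and IC50 values were calculated by standard methods and expressed in μM.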

As a reminder, the IC50 is the concentration at which inhibition is half-maximal. `Cc1cc(N2C[C@H](S(=O)(=O)c3ccc(N4CCN(C)CC4)cc3C(F)(F)F)C[C@H]2C(=O)NC2(C#N)CC2)n(C2CCC2)n1` [Example 389, (2S,4R)-1-(2-Cyclobutyl-5-methyl-2H-pyrazol-3-yl)-4-[4-(4-methyl-piperazin-1-yl)-2-trifluoromethyl-benzenesulfonyl]-pyrrolidine-2-carboxylic acid (1-cyano-cyclopropyl)-amide]: the IC50 is 8060 nM in experiment [1] and 0.2 nM in experiment [2].
In the case of `N#CC1(NC(=O)[C@@H]2C[C@@H](S(=O)(=O)c3ccc(OCC(F)(F)F)cc3Cl)CN2C(=O)C2(c3cccc4ccccc34)OCCO2)CC1` [Example 390, (2S,4R)-4-[2-Chloro-4-(2,2,2-trifluoro-ethoxy)-benzenesulfonyl]-1-(2-naphthalen-1-yl-[1,3]dioxolane-2-carbonyl)-pyrrolidine-2-carboxylic acid (1-cyano-cyclopropyl)-amide], the results for the IC50 in experiment [1] and in experiment [2] were 120 nM and 0.83 nM, respectively.
For `Cc1cc(N2C[C@H](S(=O)(=O)c3ccc(OCC(F)(F)F)cc3C(F)(F)F)C[C@H]2C(=O)NC2(C#N)CC2)n(C2CCC2)n1` [Example 391, (2S,4R)-1-(2-Cyclobutyl-5-methyl-2H-pyrazol-3-yl)-4-[4-(2,2,2-trifluoro-ethoxy)-2-trifluoromethyl-benzenesulfonyl]-pyrrolidine-2-carboxylic acid (1-cyano-cyclopropyl)-amide], the IC50 in experiment [1] is 16700 nM; in experiment [2], 0.22 nM.
Taken in the same sequence, the figures for `Cc1cc(N2C[C@H](S(=O)(=O)c3ccc(OCC(F)(F)F)cc3C(F)(F)F)C[C@@H]2C(=O)NC2(C#N)CC2)n(C2CCC2)n1` [Example 392, (2R,4R)-1-(2-Cyclobutyl-5-methyl-2H-pyrazol-3-yl)-4-[4-(2,2,2-trifluoro-ethoxy)-2-trifluoromethyl-benzenesulfonyl]-pyrrolidine-2-carboxylic acid (1-cyano-cyclopropyl)-amide] were at least 25000 nM and 0.91 nM.
Turning to `Cn1nc(N2C[C@H](S(=O)(=O)c3ccccc3C(F)(F)F)C[C@H]2C(=O)NC2(C#N)CC2)cc1C1CCOCC1` [Example 393, (2S,4R)-1-[1-Methyl-5-(tetrahydro-pyran-4-yl)-1H-pyrazol-3-yl]-4-(2-trifluoromethyl-benzenesulfonyl)-pyrrolidine-2-carboxylic acid (1-cyano-cyclopropyl)-amide], the IC50 in experiment [1] was at least 25000 nM; in experiment [2], 3.75 nM.
As for `N#CC1(NC(=O)[C@@H]2C[C@@H](S(=O)(=O)c3ccccc3C(F)(F)F)CN2c2ccc(F)c(Cl)c2)CC1` [Example 394, (2S,4R)-1-(3-Chloro-4-fluoro-phenyl)-4-(2-trifluoromethyl-benzenesulfonyl)-pyrrolidine-2-carboxylic acid (1-cyano-cyclopropyl)-amide], the IC50 in experiment [1] is at least 25000 nM; in experiment [2] it was 2.95 nM.
Consider `N#CC1(NC(=O)[C@H]2C[C@H](S(=O)(=O)c3ccccc3C(F)(F)F)CN2c2ccc(F)c(Cl)c2)CC1` [Example 395, (2R,4S)-1-(3-Chloro-4-fluoro-phenyl)-4-(2-trifluoromethyl-benzenesulfonyl)-pyrrolidine-2-carboxylic acid (1-cyano-cyclopropyl)-amide], for which the IC50 is at least 25000 nM in experiment [1] and 155 nM in experiment [2].
Take `Cc1cc(N2C[C@H](S(=O)(=O)c3ccc(F)cc3C(F)(F)F)C[C@H]2C(=O)NC2(C#N)CC2)n(C2CCOCC2)n1` [Example 396, (2S,4R)-4-(4-Fluoro-2-trifluoromethyl-benzenesulfonyl)-1-[5-methyl-2-(tetrahydro-pyran-4-yl)-2H-pyrazol-3-yl]-pyrrolidine-2-carboxylic acid (1-cyano-cyclopropyl)-amide]: the values for the IC50 in experiment [1] and in experiment [2] were 57500 nM and 1.65 nM, respectively.
In the same order, the values of `N#CC1(NC(=O)[C@@H]2C[C@@H](S(=O)(=O)c3ccccc3C(F)(F)F)CN2c2cc(C3CCOCC3)nn2C2CCC2)CC1` [Example 397, (2S,4R)-1-[2-Cyclobutyl-5-(tetrahydro-pyran-4-yl)-2H-pyrazol-3-yl]-4-(2-trifluoromethyl-benzenesulfonyl)-pyrrolidine-2-carboxylic acid (1-cyano-cyclopropyl)-amide] are 7200 nM and 0.435 nM.
As for `N#CC1(NC(=O)[C@@H]2C[C@@H](S(=O)(=O)c3ccccc3C(F)(F)F)CN2c2cc(C3CC3)nn2C2CCC2)CC1` [Example 398, (2S,4R)-1-(2-Cyclobutyl-5-cyclopropyl-2H-pyrazol-3-yl)-4-(2-trifluoromethyl-benzenesulfonyl)-pyrrolidine-2-carboxylic acid (1-cyano-cyclopropyl)-amide], the IC50 was 18800 nM in experiment [1] and 0.555 nM in experiment [2].
Taken in the same sequence, the figures for `N#CC1(NC(=O)[C@@H]2C[C@@H](S(=O)(=O)c3ccccc3Cl)CN2c2nnc(C(F)(F)F)s2)CC1` [Example 399] were over 25000 nM and 0.98 nM.
In the same order, the values of `N#CC1(NC(=O)[C@@H]2C[C@@H](S(=O)(=O)c3ccccc3C(F)(F)F)CN2c2cc(C3CC3)n[nH]2)CC1` [Example 400, (2S,4R)-1-(5-Cyclopropyl-2H-pyrazol-3-yl)-4-(2-trifluoromethyl-benzenesulfonyl)-pyrrolidine-2-carboxylic acid (1-cyano-cyclopropyl)-amide] are at least 25000 nM and 3.3 nM.
On to `Cc1cc(N2C[C@H](S(=O)(=O)c3ccc(N4CCN(C)CC4)cc3Cl)C[C@H]2C(=O)NC2(C#N)CC2)n(C2CCC2)n1` [Example 401, (2S,4R)-4-[2-Chloro-4-(4-methyl-piperazin-1-yl)-benzenesulfonyl]-1-(2-cyclobutyl-5-methyl-2H-pyrazol-3-yl)-pyrrolidine-2-carboxylic acid (1-cyano-cyclopropyl)-amide], for which the IC50 in experiment [1] was 1080 nM; in experiment [2] it was 0.46 nM.
For the compound `CS(=O)(=O)c1cccc(N2C[C@H](S(=O)(=O)c3ccccc3C(F)(F)F)C[C@H]2C(=O)NC2(C#N)CC2)c1` [Example 402, (2S,4R)-1-(3-Methanesulfonyl-phenyl)-4-(2-trifluoromethyl-benzenesulfonyl)-pyrrolidine-2-carboxylic acid (1-cyano-cyclopropyl)-amide], the IC50 in experiment [1] was at least 25000 nM; in experiment [2], 1.4 nM.
Regarding `N#CC1(NC(=O)[C@@H]2C[C@@H](S(=O)(=O)c3ccccc3C(F)(F)F)CN2c2nc(Cl)ns2)CC1` [Example 405, (2S,4R)-1-(3-Chloro-[1,2,4]thiadiazol-5-yl)-4-(2-trifluoromethyl-benzenesulfonyl)-pyrrolidine-2-carboxylic acid (1-cyano-cyclopropyl)-amide], the IC50 was at least 25000 nM in experiment [1] and 0.935 nM in experiment [2].
With `Cc1cc(N2C[C@H](S(=O)(=O)c3ccccc3C(F)(F)F)C[C@H]2C(=O)NC2(C#N)CC2)n(C2CCN(C(=O)OCc3ccccc3)CC2)n1` [Example 406, 4-{5-[(2S,4R)-2-(1-Cyano-cyclopropylcarbamoyl)-4-(2-trifluoromethyl-benzenesulfonyl)-pyrrolidin-1-yl]-3-methyl-pyrazol-1-yl}-piperidine-1-carboxylic acid Benzyl Ester], the IC50 in experiment [1] was at least 25000 nM; in experiment [2], 4 nM.
With `Cc1cc(N2C[C@H](S(=O)(=O)c3ccccc3C(F)(F)F)C[C@H]2C(=O)NC2(C#N)CC2)n(C2CCNCC2)n1` [Example 407, (2S,4R)-1-(5-Methyl-2-piperidin-4-yl-2H-pyrazol-3-yl)-4-(2-trifluoromethyl-benzenesulfonyl)-pyrrolidine-2-carboxylic acid (1-cyano-cyclopropyl)-amide], the results for the IC50 in experiment [1] and in experiment [2] were at least 25000 nM and 38.5 nM, respectively.
In the same order, the values of `CS(=O)(=O)[C@@H]1C[C@@H](C(=O)NC2(C#N)CC2)N(C(=O)C2(c3ccc(Cl)cc3)CC2)C1` [Example 409, (2S,4R)-1-[1-(4-Chloro-phenyl)-cyclopropanecarbonyl]-4-methanesulfonyl-pyrrolidine-2-carboxylic acid (1-cyano-cyclopropyl)-amide] are at least 25000 nM and 2530 nM.
On to `N#CC1(NC(=O)[C@@H]2C[C@@H](S(=O)(=O)c3ccccc3Cl)CN2C(=O)c2n[nH]c3cc(Cl)ccc23)CC1` [Example 410, (2S,4R)-4-(2-Chloro-benzenesulfonyl)-1-(6-chloro-1H-indazole-3-carbonyl)-pyrrolidine-2-carboxylic acid (1-cyano-cyclopropyl)-amide], for which the IC50 was found to be 29700 nM in experiment [1] and 4.8 nM in experiment [2].
For the compound `N#CC1(NC(=O)[C@@H]2C[C@@H](S(=O)(=O)c3ccccc3Cl)CN2C(=O)[C@H](O)c2ccc(Cl)cc2)CC1` [Example 411, (2S,4R)-4-(2-Chloro-benzenesulfonyl)-1-[(R)-2-(4-chloro-phenyl)-2-hydroxy-acetyl]-pyrrolidine-2-carboxylic acid (1-cyano-cyclopropyl)-amide], the IC50 was 550 nM in experiment [1] and 0.525 nM in experiment [2].
In the case of `CC(C)(C)OC(=O)N[C@@H](C(=O)N1C[C@H](S(=O)(=O)c2ccccc2Cl)C[C@H]1C(=O)NC1(C#N)CC1)c1ccc(Cl)cc1` [Example 412, [(R)-2-[(2S,4R)-4-(2-Chloro-benzenesulfonyl)-2-(1-cyano-cyclopropylcarbamoyl)-pyrrolidin-1-yl]-1-(4-chloro-phenyl)-2-oxo-ethyl]-carbamic Acid Tert-butyl ester], the results for the IC50 in experiment [1] and in experiment [2] were 785 nM and 2.75 nM, respectively.
In the same order, the values of `Cc1csc(C2(C(=O)N3C[C@H](S(=O)(=O)c4ccccc4Cl)C[C@H]3C(=O)NC3(C#N)CC3)CC2)n1` [Example 413, (2S,4R)-4-(2-Chloro-benzenesulfonyl)-1-[1-(4-methyl-thiazol-2-yl)-cyclopropanecarbonyl]-pyrrolidine-2-carboxylic acid (1-cyano-cyclopropyl)-amide] are 1100 nM and 0.31 nM.

For the origin of these results see US8163793B2, “Proline derivatives” (Hoffman-La Roche Inc., priority 2009, dated 2012).
